# Reference: US5602134A, “Positive inotropic and lusitropic pyrroloquinolinone derivatives” (Janssen Pharmaceutica N.V., priority 1993, dated 1997)
# Where a name gives a salt, the structure may show the parent alone. Read-outs that look alike come from different tables or passages of the source.
# What was measured:
# [1] = molecular target: T1, canine heart phosphodiesterase PDE III (Canis lupus familiaris, UniProt A0A8I3NYE0); assay: Inhibition of Phosphodiesterase Type III (PDE III); format: biochemical; settings: 10 min at 37° C., pH 7.1
# T1 construct: canine heart phosphodiesterase PDE III; from tissue; host or cells: canine heart
# T1 sequence (A0A8I3NYE0 1-1135): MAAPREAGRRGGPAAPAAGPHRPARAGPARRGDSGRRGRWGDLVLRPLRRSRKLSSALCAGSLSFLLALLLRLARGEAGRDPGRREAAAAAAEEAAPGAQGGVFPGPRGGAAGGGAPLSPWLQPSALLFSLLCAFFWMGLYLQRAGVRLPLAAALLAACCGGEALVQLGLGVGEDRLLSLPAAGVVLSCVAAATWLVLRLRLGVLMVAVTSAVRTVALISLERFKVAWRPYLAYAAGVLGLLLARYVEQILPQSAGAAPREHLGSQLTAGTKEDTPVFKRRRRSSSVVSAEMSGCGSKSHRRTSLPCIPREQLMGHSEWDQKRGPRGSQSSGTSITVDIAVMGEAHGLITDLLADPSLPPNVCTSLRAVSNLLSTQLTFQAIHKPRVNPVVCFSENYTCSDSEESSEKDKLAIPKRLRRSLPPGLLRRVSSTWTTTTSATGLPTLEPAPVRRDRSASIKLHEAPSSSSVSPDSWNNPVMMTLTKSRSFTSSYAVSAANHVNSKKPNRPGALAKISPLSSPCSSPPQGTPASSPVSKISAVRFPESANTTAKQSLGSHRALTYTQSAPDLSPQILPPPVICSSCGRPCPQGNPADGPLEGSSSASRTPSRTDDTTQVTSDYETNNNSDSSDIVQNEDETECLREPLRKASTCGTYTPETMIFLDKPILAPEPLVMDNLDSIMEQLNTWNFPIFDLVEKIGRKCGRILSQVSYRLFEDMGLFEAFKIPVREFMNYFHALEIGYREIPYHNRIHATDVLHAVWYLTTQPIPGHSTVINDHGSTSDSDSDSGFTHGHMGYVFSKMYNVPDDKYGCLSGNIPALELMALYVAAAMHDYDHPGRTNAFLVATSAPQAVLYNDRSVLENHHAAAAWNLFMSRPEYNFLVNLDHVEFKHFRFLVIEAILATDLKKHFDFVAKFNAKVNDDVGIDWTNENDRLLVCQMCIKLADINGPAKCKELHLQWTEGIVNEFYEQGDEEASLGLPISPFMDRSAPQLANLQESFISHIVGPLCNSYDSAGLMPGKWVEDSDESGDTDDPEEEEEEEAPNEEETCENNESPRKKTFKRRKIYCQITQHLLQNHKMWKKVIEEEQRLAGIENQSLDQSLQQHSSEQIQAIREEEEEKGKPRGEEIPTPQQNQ
# Description: The positive inotropic and lusitropic effect of the instant compounds was assessed by an in vitro assay system to detect inhibiting effect on the phosphodiesterase type III and in an in vivo experiment in closed-chest anesthetized dogs by monitoring cardiac and haemodynamic effects of an intravenous bolus injection of the instant compounds. […] Inhibition of Phosphodiesterase Type III (PDE III) […] For every preparation,time- and concentration-dependent changes in cyclic nucleotide hydrolysis were measured. […] The enzymatic activity was started by addition of substrate and stopped 10 min later after the tubes were transferred to a waterbath at 100° C. for 40 sec. After the tubes had been cooled to room temperature, alkaline phosphatase (0.25 g/ml) was added and the mixture was left at 37° C. for 20 min. The mixture was subsequently applied to a 1-ml DEAE-Sephadex A-25 column and washed twice with 3 ml of 20 mM Tris-HCl at pH 7.4. The ^3 H-labeled reaction products in the eluate were quantified by liquid scintillation counting. The inhibiting effect of the present compounds on canine heart phosphodiesterase PDE III was measured at different concentrations of the instant compounds. The IC50 values were calculated graphically from the thus obtained inhibition values.
# Beagle dogs = assay: Positive inotropy and lusitropy, blood pressure and heart rate in anaesthetized closed-chest dogs; format: in vivo, Beagle dog; settings: Canis lupus familiaris, iv, 5 min, 5 min after i.v. administration, n = 3, relative to premedication values
# Description: The positive inotropic and lusitropic effect of the instant compounds was assessed by an in vitro assay system to detect inhibiting effect on the phosphodiesterase type III and in an in vivo experiment in closed-chest anesthetized dogs by monitoring cardiac and haemodynamic effects of an intravenous bolus injection of the instant compounds.
# Positive Inotropy and Lusitropy, Blood Pressure and Heart Rate in Dogs
# The test compound was dissolved in an aqueous glucose solution in a concentration of 1 mg.ml^-1. The experiments were performed on 3 Beagle dogs of either sex and varying age, ranging in body weight from 11 to 18 kg (median 13 kg). The animals were intravenously anaesthetized with a mixture of 0.015 mg.kg^-1 scopolamine and 0.05 mg.kg^-1 lofentanil. The animals were intubated with a cuffed endotracheal tube. Intermittent positive pressure ventilation was performed with a mixture of pressurized air and oxygen (60/40), using a volume-controlled ventilator (Siemens Elema). In the control period the CO2 concentration in the expired air (ET CO2), as determined with a capnograph (Gould Godart), was kept at 5 vol % by adjustment of the respiratory volume (resp. rate=20 breaths.min^-1). A continuous intravenous infusion of 0.5 mg.kg^-1.h^-1 of etomidate was started immediately after induction. Body temperature was monitored with a thermistor positioned in the pulmonary artery. To prevent blood clotting heparin, 1000 IU.kg^-1i.v., was administered.
# The electrocardiogram (ECG) was derived from limb leads (standard lead 2). Left ventricular (LVP) and ascending aortic blood pressure (AoP) were measured by retrograde catheterisation via the femoral arteries with high fidelity cathetertip micromanometers (Honeywell). The other femoral vein was cannulated for injection of saline at room temperature into the right atrium and for injection of the test compound. Peak ascending aortic blood flow velocity was measured through the fight carotid artery with an electomagnetic catheter-tip probe connected to a square wave electomagnetic flow meter (Janssen Scientific Instruments). The following variables--inter alia--were calculated on-line, usually at 1 rain intervals: heart rate (HR), diastolic (AoPd) aortic blood pressure, left ventricular end-diastolic pressure (LVEDP), the maximum positive and maximum negative rate of change of isovolumic LVP (LV dp/dtmax and min, respectively), the maximum positive first derivative divided by the actually developed pressure in the left ventricle (LV dp/dtmax /Pd). The time constant (T) of relaxation was measured with the use of an exponential analysis that also estimated the asymptote. After a stabilization period, the animals were treated by intravenous bolus injection of the test compound at 30 min. interval in cumulative doses of 0.0005, 0.001, 0.004, 0.016, 0.064, 0.125 and 0.25 mg/kg.
# [2] = read-out: Calculated dose producing a 15% reduction in diastolic aortic blood pressure (AoPD)
# [3] = read-out: Calculated dose producing a 15% reduction of total systemic vascular resistance (TSR)
# [4] = read-out: Calculated dose producing a 30% increase in cardiac contractility (LV dp/dt max)
# [5] = read-out: Calculated dose producing a 30% increase in heart rate (HR)
SMILES,IC50 [1],ED15 (Beagle dogs; [2]),ED15 (Beagle dogs; [3]),ED30 (Beagle dogs; [4]),ED30 (Beagle dogs; [5])
"CCOC(=O)CCCCOc1ccc2nc3c(cc2c1)CC(=O)N3 [Compound 2, ethyl 5-[(2,3-dihydro-2-oxo-1H-pyrrolo[2,3-b]quinolin-6-yl]oxy]pentanoate]",62 nM,–,–,–,–
"O=C1Cc2cc3cc(OCCCC(=O)N4CCN(CC5CCCCC5)CC4)ccc3nc2N1 [Compound 5, 1-(cyclohexylmethyl)-4-[4-[(2,3-dihydro-2-oxo-1H-pyrrolo[2,3-b]quinolin-6-yl)oxy]-1-oxobutyl]piperazine]",18 nM,> 0.25 mg/kg,0.079 mg/kg,0.008 mg/kg,0.033 mg/kg
"CCOC(=O)CCCOc1ccc2nc3c(cc2c1)CC(=O)N3 [Compound 1, ethyl 4-[(2,3-dihydro-2-oxo-1H-pyrrolo[2,3-b]quinolin-6-yl]oxy]butanoate]",290 nM,–,–,–,–
"O=C(O)CCCOc1ccc2nc3c(cc2c1)CC(=O)N3 [Compound 3, 4-[(2,3-dihydro-2-oxo-1H-pyrrolo[2,3-b]quinolin-6-yl)oxy]butanoic acid]",330 nM,–,–,–,–

# More lines, main results first:
IC50 [1],SMILES,ED15 (Beagle dogs; [2]),ED15 (Beagle dogs; [3]),ED30 (Beagle dogs; [4]),ED30 (Beagle dogs; [5])
1.8 nM,"Cl.O=C1Cc2cc3cc(OCCCCC(=O)N4CCN(CC5CCCCC5)CC4)ccc3nc2N1 [Compound 15, 1-(cyclohexylmethyl)-4-[5-[(2,3-dihydro-2-oxo-1H-pyrrolo[2,3-b]-quinolin-6-yl)oxy]-1-oxopentyl]piperazine monohydrochloride]",0.015 mg/kg,0.003 mg/kg,0.002 mg/kg,0.028 mg/kg
7.6 nM,"CN(C(=O)CCCOc1ccc2nc3c(cc2c1)CC(=O)N3)C1CCCCC1 [Compound 17, N-cyclohexyl-4-[(2,3-dihydro-2-oxo-1H-pyrrolo[2,3-b]quinolin-6-yl)oxy]-N-methylbutanamide hemihydrate]",–,–,–,–
2.4 nM,O=C1Cc2cc3cc(OCCCCC(=O)N4CCN(CC5CCCCC5)CC4)ccc3nc2N1 [Compound 6],–,–,–,–
300 nM,"CN1CCC(N(C)C(=O)CCCOc2ccc3nc4c(cc3c2)CC(=O)N4)CC1 [Compound 8, 4-[(2,3-dihydro-2-oxo-1H-pyrrolo[2,3-b]quinolin-6-yl)oxy]-N-methyl-N-(1-methyl-4-piperidinyl)butanamide]",–,–,–,–
27 nM,"O=C1Cc2cc3cc(OCCCC(=O)N4CCN(CC5CCCCC5)CC4)ccc3nc2N1 [Compound 16, 1-(cyclohexylmethyl)-4-[4-[(2,3-dihydro-2-oxo-1H-pyrrolo[2,3-b]quinolin-6-yl)oxy]-1-oxobutyl]piperazine dihydrochloride ethanolate(1:1)]",–,–,–,–
58 nM,O=C1Cc2cc3cc(OCCCCC(=O)NC4CCN(Cc5ccccc5)CC4)ccc3nc2N1 [Compound 7],–,–,–,–
